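In this assay, cells in 96-well plates receive the compound at five concentrations for 48 hours. Endpoints are linearly interpolated between the surrounding concentrations. GI50 marks 50% less growth.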 Calls of active or inactive are those of the source. Rule as the data show it: active = GI50 up to about 1.1 µM and inactive = higher.
Columns and labels:
Test in all cases: NCI-60 cell line screen, 48 h
LXFL 529 = system: LXFL 529
LOX IMVI = system: LOX IMVI
OVCAR-5 = system: OVCAR-5
NCI-H23 = system: NCI-H23
SNB-19 = system: SNB-19
Malme-3M = system: Malme-3M
SF-295 = system: SF-295
UO-31 = system: UO-31
COLO 205 = system: COLO 205
OVCAR-8 = system: OVCAR-8
SW-620 = system: SW-620
HCT-15 = system: HCT-15
M19-MEL = system: M19-MEL
SK-MEL-28 = system: SK-MEL-28
SNB-78 = system: SNB-78
EKVX = system: EKVX
NCI-H460 = system: NCI-H460
TK-10 = system: TK-10
SR = system: SR
MOLT-4 = system: MOLT-4
SK-MEL-2 = system: SK-MEL-2
UACC-257 = system: UACC-257
RPMI-8226 = system: RPMI-8226
HOP-92 = system: HOP-92
HCT-116 = system: HCT-116
IGROV-1 = system: IGROV-1
CCRF-CEM = system: CCRF-CEM
SNB-75 = system: SNB-75
SN12C = system: SN12C
HOP-18 = system: HOP-18
HCC 2998 = system: HCC 2998
DMS-273 = system: DMS-273
ACHN = system: ACHN
U-251 = system: U-251
OVCAR-3 = system: OVCAR-3
KM-20L2 = system: KM-20L2
UACC-62 = system: UACC-62
HOP-62 = system: HOP-62
RXF 393 = system: RXF 393
SF-539 = system: SF-539
SK-OV-3 = system: SK-OV-3
786-0 = system: 786-0
HL-60 = system: HL-60
HT-29 = system: HT-29
NCI-H226 = system: NCI-H226
XF498 = system: XF498
SF-268 = system: SF-268
A549 = system: A549
KM12 = system: KM12
NCI-H522 = system: NCI-H522
OVCAR-4 = system: OVCAR-4
A498 = system: A498
M14 = system: M14
CAKI-1 = system: CAKI-1
SK-MEL-5 = system: SK-MEL-5
DLD-1 = system: DLD-1
K562 = system: K562
DMS-114 = system: DMS-114

With `Cc1cc2c(=O)cc(-c3ccncc3)oc2c(C(N)=O)c1C` the GI50 (LXFL 529) was > 100 µM (inactive), the GI50 (LOX IMVI) was > 100 µM (inactive) and the GI50 (OVCAR-5) was > 100 µM (inactive). For the same molecule, the GI50 (NCI-H23) was > 100 µM (inactive), the GI50 (SNB-19) was > 100 µM (inactive) and the GI50 (Malme-3M) was > 100 µM (inactive). For the same molecule, the GI50 (SF-295) was > 100 µM (inactive), the GI50 (UO-31) was > 100 µM (inactive) and the GI50 (COLO 205) was > 100 µM (inactive). The GI50 (OVCAR-8) was > 100 µM (inactive), the GI50 (SW-620) was > 100 µM (inactive) and the GI50 (HCT-15) was greater than 100 µM. The GI50 (M19-MEL) was > 100 µM (inactive), the GI50 (SK-MEL-28) was > 100 µM (inactive) and the GI50 (SNB-78) was > 100 µM (inactive). The GI50 (EKVX) was > 100 µM (inactive), the GI50 (NCI-H460) was 87.9 µM (inactive) and the GI50 (TK-10) was > 100 µM (inactive). For the same molecule, the GI50 (SR) was > 100 µM (inactive), the GI50 (MOLT-4) was > 100 µM (inactive) and the GI50 (SK-MEL-2) was > 100 µM (inactive). The GI50 (UACC-257) was > 100 µM (inactive), the GI50 (RPMI-8226) was > 100 µM (inactive) and the GI50 (HOP-92) was > 100 µM (inactive). The GI50 (HCT-116) was 83.4 µM (inactive), the GI50 (IGROV-1) was > 100 µM (inactive) and the GI50 (CCRF-CEM) was > 100 µM (inactive). For the same molecule, the GI50 (SNB-75) was > 100 µM (inactive), the GI50 (SN12C) was > 100 µM (inactive) and the GI50 (HOP-18) was > 100 µM (inactive). The GI50 (HCC 2998) was > 100 µM (inactive), the GI50 (DMS-273) was > 100 µM (inactive) and the GI50 (ACHN) was > 100 µM (inactive). For the same molecule, the GI50 (U-251) was > 100 µM (inactive), the GI50 (OVCAR-3) was > 100 µM (inactive) and the GI50 (KM-20L2) was > 100 µM (inactive). For the same molecule, the GI50 (UACC-62) was 99.8 µM (inactive), the GI50 (HOP-62) was > 100 µM (inactive) and the GI50 (RXF 393) was > 100 µM (inactive). For the same molecule, the GI50 (SF-539) was > 100 µM (inactive), the GI50 (SK-OV-3) was > 100 µM (inactive) and the GI50 (786-0) was > 100 µM (inactive). The GI50 (HL-60) was > 100 µM (inactive), the GI50 (HT-29) was > 100 µM (inactive) and the GI50 (NCI-H226) was > 100 µM (inactive). The GI50 (XF498) was > 100 µM (inactive), the GI50 (SF-268) was > 100 µM (inactive) and the GI50 (A549) was > 100 µM (inactive).
For `CC1=C(C(=O)O)N2C(=O)[C@@H](NC(=O)C(c3ccccc3)N3CSC(=S)N(C(C)C)C3)C2SC1` (stereo partly specified), the GI50 (LXFL 529) was > 100 µM (inactive), the GI50 (LOX IMVI) was > 100 µM (inactive) and the GI50 (OVCAR-5) was > 100 µM (inactive). The GI50 (NCI-H23) was > 100 µM (inactive), the GI50 (SNB-19) was > 100 µM (inactive) and the GI50 (Malme-3M) was > 100 µM (inactive). The GI50 (SF-295) was > 100 µM (inactive), the GI50 (UO-31) was > 100 µM (inactive) and the GI50 (COLO 205) was 86.3 µM (inactive). The GI50 (OVCAR-8) was > 100 µM (inactive), the GI50 (HCT-15) was greater than 100 µM and the GI50 (M19-MEL) was > 100 µM (inactive). The GI50 (KM12) was > 100 µM (inactive), the GI50 (SK-MEL-28) was 59 µM (inactive) and the GI50 (SNB-78) was > 100 µM (inactive). The GI50 (EKVX) was > 100 µM (inactive), the GI50 (NCI-H522) was 30.4 µM (inactive) and the GI50 (NCI-H460) was > 100 µM (inactive). The GI50 (TK-10) was > 100 µM (inactive), the GI50 (MOLT-4) was > 100 µM (inactive) and the GI50 (SK-MEL-2) was > 100 µM (inactive). The GI50 (UACC-257) was > 100 µM (inactive), the GI50 (OVCAR-4) was > 100 µM (inactive) and the GI50 (A498) was > 100 µM (inactive). For the same molecule, the GI50 (RPMI-8226) was > 100 µM (inactive), the GI50 (HOP-92) was > 100 µM (inactive) and the GI50 (M14) was > 100 µM (inactive). The GI50 (HCT-116) was > 100 µM (inactive), the GI50 (IGROV-1) was > 100 µM (inactive) and the GI50 (CCRF-CEM) was > 100 µM (inactive). The GI50 (SNB-75) was > 100 µM (inactive), the GI50 (SN12C) was > 100 µM (inactive) and the GI50 (CAKI-1) was > 100 µM (inactive). The GI50 (HOP-18) was > 100 µM (inactive), the GI50 (DMS-273) was > 100 µM (inactive) and the GI50 (ACHN) was > 100 µM (inactive). For the same molecule, the GI50 (U-251) was > 100 µM (inactive), the GI50 (OVCAR-3) was > 100 µM (inactive) and the GI50 (KM-20L2) was > 100 µM (inactive). For the same molecule, the GI50 (SK-MEL-5) was > 100 µM (inactive), the GI50 (UACC-62) was > 100 µM (inactive) and the GI50 (HOP-62) was > 100 µM (inactive). For the same molecule, the GI50 (DLD-1) was > 100 µM (inactive), the GI50 (SF-539) was > 100 µM (inactive) and the GI50 (SK-OV-3) was > 100 µM (inactive). The GI50 (K562) was 74.1 µM (inactive), the GI50 (786-0) was > 100 µM (inactive) and the GI50 (HL-60) was > 100 µM (inactive). For the same molecule, the GI50 (HT-29) was > 100 µM (inactive) and the GI50 (XF498) was > 100 µM (inactive).
`O=c1cccccc1NCCCCCCCCCNc1cccccc1=O` was tested, and the GI50 (LXFL 529) was 8.97 µM (inactive), the GI50 (LOX IMVI) was 5.9 µM (inactive) and the GI50 (OVCAR-5) was 17.5 µM (inactive). For the same molecule, the GI50 (NCI-H23) was 5.26 µM (inactive), the GI50 (SNB-19) was 11.5 µM (inactive) and the GI50 (Malme-3M) was 7.52 µM (inactive). The GI50 (SF-295) was 9.64 µM (inactive), the GI50 (UO-31) was 12 µM (inactive) and the GI50 (COLO 205) was 3.23 µM (inactive). The GI50 (OVCAR-8) was 13.6 µM (inactive), the GI50 (SW-620) was 18.6 µM (inactive) and the GI50 (HCT-15) was 12.2 µM. The GI50 (M19-MEL) was 15.2 µM (inactive), the GI50 (KM12) was 16.1 µM (inactive) and the GI50 (SNB-78) was 17.1 µM (inactive). For the same molecule, the GI50 (EKVX) was 4.56 µM (inactive), the GI50 (NCI-H522) was 13.9 µM (inactive) and the GI50 (NCI-H460) was 9.51 µM (inactive). For the same molecule, the GI50 (SR) was 8.43 µM (inactive), the GI50 (MOLT-4) was 5.75 µM (inactive) and the GI50 (SK-MEL-2) was 19 µM (inactive). For the same molecule, the GI50 (UACC-257) was 2.12 µM (inactive), the GI50 (OVCAR-4) was 1.78 µM (inactive) and the GI50 (RPMI-8226) was 4.4 µM (inactive). For the same molecule, the GI50 (HOP-92) was 18.7 µM (inactive), the GI50 (M14) was 10.9 µM (inactive) and the GI50 (HCT-116) was 2.74 µM (inactive). For the same molecule, the GI50 (IGROV-1) was 19 µM (inactive), the GI50 (CCRF-CEM) was 5.94 µM (inactive) and the GI50 (SNB-75) was 17.9 µM (inactive). The GI50 (SN12C) was 21 µM (inactive), the GI50 (CAKI-1) was 13.3 µM (inactive) and the GI50 (HCC 2998) was 13.3 µM (inactive). For the same molecule, the GI50 (DMS-273) was 12.5 µM (inactive), the GI50 (ACHN) was 4.28 µM (inactive) and the GI50 (U-251) was 10.6 µM (inactive). For the same molecule, the GI50 (OVCAR-3) was 9.06 µM (inactive), the GI50 (KM-20L2) was 19.6 µM (inactive) and the GI50 (UACC-62) was 12.5 µM (inactive). The GI50 (HOP-62) was 15.1 µM (inactive), the GI50 (DLD-1) was 10.8 µM (inactive) and the GI50 (RXF 393) was 22.5 µM (inactive). The GI50 (SF-539) was 6.68 µM (inactive), the GI50 (SK-OV-3) was 33.1 µM (inactive) and the GI50 (K562) was 3.35 µM (inactive). The GI50 (786-0) was 22.1 µM (inactive), the GI50 (HL-60) was 4.06 µM (inactive) and the GI50 (HT-29) was 15.7 µM (inactive). For the same molecule, the GI50 (DMS-114) was 1.35 µM (inactive), the GI50 (NCI-H226) was 15.7 µM (inactive) and the GI50 (XF498) was 7.36 µM (inactive). For the same molecule, the GI50 (SF-268) was 14.1 µM (inactive) and the GI50 (A549) was 9.66 µM (inactive).

Source: ChEMBL document CHEMBL1201862, “PubChem BioAssay data set” (2004)
